Entries after “also recorded” stand apart in the source; their conditions may differ. Like-named read-outs stand apart in the source and are kept apart here.
Columns and labels:
Type in all cases: in vivo, rat
[1] = system: occludin expression in colonic mucosa; assay: Occludin expression in colonic tissue of DNBS-induced rats by western blotting; conditions: 10 mg/kg
[2] = system: visceral pain (visceral hypersensitivity) in rats induced by intrarectal injection of DNBS; assay: Acute administration test: abdominal withdrawal reflex (AWR) to colorectal distension in DNBS-treated rats
Description: (§1) Male Sprague-Dawley rats (Envigo, Varese, Italy) weighing approximately 300 g at the beginning of a test were used. The animals were housed in Centro Stabulazione Animali da Laboratorio (CeSAL, University of Florence) and used at least one week after their arrival. Four rats were raised per cage (size 26×41 cm). The animals were fed with standard laboratory diet and tap water ad libitum and kept at 23±1° C. with a 12-hour light/dark cycle (light at 7:00 in the morning). All animal manipulations were carried out according to the European Community Guidelines for Animal Care (DL116/92) and the application of European Communities Council Directive of Nov. 24, 1986 (86/609/EEC). The ethical policy of the University of Florence complies with the Guide for the Care and Use of Laboratory Animals of the US National Institutes of Health (NIH Publication No. 85-23, revised 1996, University of Florence assurance number: A5278-01). Formal approval to conduct the experiments described was obtained from the Animal Subjects Review Board of the University of Florence. Experiments involving animals have been reported according to ARRIVE guidelines (McGrath and Lilley, Br. J. Pharmacol. 2015; 172:3189-3193). All efforts were made to minimize suffering of the animals and to reduce the number of animals used.
Colitis was induced by intrarectal administration of 15 mg of 2,4-dinitrobenzenesulfonic acid (DNBS; Sigma-Aldrich S.r.l., Milano, Italia) in 0.25 ml of 50% ethanol via a polyethylene PE-60 catheter inserted approximately 8 cm into the anus, while the rat was under short-term anesthesia by isoflurane (2%). […]
Compound A and Compound B were dissolved in water and orally administered 30 minutes before the beginning of a test, and an acute effect was evaluated.
(§2) Visceral sensitivity to colorectal distension (CRD) was evaluated by measurement of abdominal withdrawal reflex (AWR) in conscious animals using semiquantitative scores (Lucarini et al., Cells. 2020; 9 (8): E1772). […]
Visceral sensitivity was evaluated by measuring abdominal withdrawal reflex (AWR) to colorectal distension (0.5 to 3 mL).

[3] = system: colonic damage in rats induced by the intrarectal injection of DNBS; assay: Intervention test: macroscopic colonic damage score in DNBS-treated rats; conditions: intervention test: daily from Day 3 to Day 8
Description: (§3) Colitis was induced by intrarectal administration of 15 mg of 2,4-dinitrobenzenesulfonic acid (DNBS; Sigma-Aldrich S.r.l., Milano, Italia) in 0.25 ml of 50% ethanol via a polyethylene PE-60 catheter inserted approximately 8 cm into the anus, while the rat was under short-term anesthesia by isoflurane (2%). To control rats, 0.25 ml of a vehicle was administered.
(§4) In addition, in order to evaluate an effect of repeated administration of a P2X4 antagonist, two different tests (that is, prevention test and intervention test) were adopted. […]
(§5) The macroscopic criteria were as follows: • presence of adhesion between colon and another intraperitoneal organ (0-2: no adhesions: 0 points, adhesion with only one adjacent organ: 1 point, and adhesions with a plurality of adjacent organs: 2 points); • consistency of colon fecal matter (indirect marker of diarrhea; 0-2: formed stool: 0 points, loose stool: 1 point, and liquid stool: 2 points); • thickening of colonic wall (mm: 1 point was scored for 1 mm); and • presence and spread of hyperemia and macroscopic mucosal damage (0-5: none: 0 points, hyperemic: 1 point, ulcers without hyperemia or thickening of intestinal wall: 2 points, ulcer with inflammation at one site: 3 points, ulcers with inflammation at two or more sites: 4 points, and wide site of damage exceeding 1 cm along length of colon: 5 points). […]

[4] = Intervention test: body weight of DNBS-treated rats; conditions: Day 1 vs Day 8, DNBS weight loss approximately 10%, not significant
Description: (§6) In addition, in order to evaluate an effect of repeated administration of a P2X4 antagonist, two different tests (that is, prevention test and intervention test) were adopted. In the prevention test, the test medicament was administered daily to the rats immediately after the delivery of DNBS (Day 1), and the treatment was continued until the rats were sacrificed on the 6th day (Day 6). In the intervention test, the daily treatment with the medicament began 2 days after the delivery of DNBS (Day 3), and the rats were sacrificed on the 8th day (Day 8).
In the test, the administration of the compounds began 2 days after the delivery of DNBS (Day 3) and was continued until the rats were sacrificed on the 8th day (Day 8). Evaluation was performed 8 days after the induction of colitis (Day 8) and 24 hours after the last treatment with Compound A (A) and Compound B (B). After the test, the animals were sacrificed, and macroscopic damage scores were assigned to their colons (FIG. 3C and FIG. 3D). In FIG. 3E and FIG. 3F, weights (g) of the animals before the DNBS injection (Day 1) and at the end of the intervention treatment with Compound A and Compound B (Day 8) are reported, respectively.

[5] = Prevention test: body weight of DNBS-treated rats; conditions: Day 1 vs Day 6, DNBS weight loss approximately 10%, not significant
Description: as §6
Visceral sensitivity was evaluated by measuring AWR to colorectal distension (0.5 to 3 mL). In the prevention test, the test medicament was administered daily to the rats immediately after the administration of DNBS, and the treatment was continued until the rats were sacrificed on the 6th day (Day 6). The evaluation was performed 6 days after the induction of colitis and 24 hours after the last treatment with Compound A (A) and Compound B (B). After the test, the animals were sacrificed, and macroscopic damage scores were assigned to their colons (FIG. 2C and FIG. 2D). In FIG. 2E and FIG. 2F, weights (g) of the animals before the DNBS injection (Day 1) and at the end of the preventive treatment with Compound A and Compound B (Day 6) are shown, respectively.

[6] = system: visceral pain (visceral hypersensitivity) in rats induced by intrarectal injection of DNBS; conditions: prevention test: daily from Day 1 to Day 6, evaluated 6 days after colitis induction, 24 hours after last treatment
Description: as §1, with “Experiments involving animals have been reported according to ARRIVE guidelines (McGrath and Lilley, Br. J. Pharmacol. 2015; 172:3189-3193). All efforts were made to minimize suffering of the animals and to reduce the number of animals used.” left out
as §2
Visceral sensitivity was evaluated by measuring AWR to colorectal distension (0.5 to 3 mL). […]

[7] = system: colonic damage in rats induced by the intrarectal injection of DNBS; assay: Prevention test: macroscopic colonic damage score in DNBS-treated rats; conditions: prevention test: daily from Day 1 to Day 6
Description: as §3, §4, §5

[8] = system: visceral pain (visceral hypersensitivity) in rats induced by intrarectal injection of DNBS; assay: Intervention test (repeated administration): AWR to colorectal distension in DNBS-treated rats; conditions: for effect on visceral pain compared with the treatment with dexamethasone: intervention test; for onset of visceral pain (visceral hypersensitivity): intervention test: daily from Day 3 to Day 8, evaluated Day 8, 24 hours after last treatment
Description: as §1, §3, §6
Visceral sensitivity to colorectal distension (CRD) was evaluated by measurement of abdominal withdrawal reflex (AWR) in conscious animals using semiquantitative scores (Lucarini et al., Cells. 2020; 9 (8): E1772). Briefly, the rats were anesthetized with isoflurane. A lubricated latex balloon (length: 4.5 cm) that is assembled into an embolectomy catheter by being attached to a polyethylene tube to be connected to a syringe filled with water was inserted into the rectum and the descending colon of adult rats through the anus. […]

| Compound | occludin expression in inflamed tissues compared to the DNBS-induced rats ([1]; listed as Compound B) | AWR to colorectal distension ([2]; acute oral administration 10 and 30 mg/kg, colorectal distension 1 to 2 mL) | colonic damage (macroscopic damage score) [3] | weight loss caused by DNBS [4] | weight loss caused by DNBS [5] | onset of visceral pain (visceral hypersensitivity) [6] | colonic damage (macroscopic damage score) [7] | effect on visceral pain compared with the treatment with dexamethasone [8] | onset of visceral pain (visceral hypersensitivity) [8] | occludin expression in inflamed tissues compared to the DNBS-induced rats ([1]; listed as Compound A, sodium salt) | visceral pain threshold ([2]; acute administration, higher doses, DNBS animals) | AWR to colorectal distension ([2]; acute oral administration 10 to 30 mg/kg, 30 minutes before test, seven days after DNBS) |
| --- | --- | --- | --- | --- | --- | --- | --- | --- | --- | --- | --- | --- |
| O=C1CC(=O)N(c2ccc(NC(=O)c3ccccc3I)cc2)c2ccc3ccccc3c2N1 [Compound B48, 5-[4-(2-iodobenzoylamino)phenyl]-1H-naphtho[1,2-b][1,4]diazepine-2,4(3H,5H)-dione] | increased; also recorded: counteract | significantly reduced | significant reduction | does not affect | did not affect | counteracted | counteracted | more effective | significantly reduces | – | – | – |
| O=C1CC(=O)N(c2cccc(-c3noc(=S)[nH]3)c2)c2ccc3ccccc3c2N1.[Na] [Compound A17, 5-[3-(5-thioxo-4H-[1,2,4]oxadiazol-3-yl)phenyl]-1H-naphtho[1,2-b][1,4]diazepine-2,4(3H,5H)-dione sodium salt] | – | – | significant reduction | does not affect | did not affect | counteracted | counteracted | more effective | significantly reduces | increased; also recorded: counteract | returned to a control value | significantly and dose-dependently decreased |
